Source: patent US20080188421A1, “Hunter-Killer Peptides and Methods of Use” (priority 2004, published 2008)

Tests used:
Kaposi's sarcoma cells [1] = test: Mitochondrial function in KS cells (WST-1 assay); type: cell-based; details: KS cells treated with peptides at 12 ug/mL; for mitochondrial function (remaining) in treated KS cell culture: function reduced to
Method: (§1) KS cells were plated in DMEM with 10% FBS in 96-well plates. Media was replaced with 100 uL of DMEM without serum and cells were treated with peptides at 12 ug/mL: The peptides utilized had two distinct disulfide links and are shown below. The other peptides utilized in the studies and methods for tumor studies are essentially as reported in Nature Medicine 5(9): 1032-1038, 1999, which is incorporated herein by reference in its entirety. Crude peptide was unpurified peptide composed monomer and dimer and other species-oxidized forms of the peptide.
In order to determine the decrease in mitochondrial function in tumor cells targeted with HK-1, which has the structure (CNGRC-GG-d(KLAKLAK)2)2 (SEQ ID NO: 9), Kaposi's sarcoma cells were treated with HK-1, with the corresponding monomeric homing conjugate CNGRC-GG-d(KLAKLAK)2 (SEQ ID NO: 20), with a crude preparation of the CNGRC homing peptide monomers, with an RGD peptide preparation, with a preparation including KLAKLAK (SEQ ID NO: 5) antimicrobial peptides, and with a CNGR control preparation.

Kaposi's sarcoma cells [2] = test: Viability of KS cells (Live/Dead assay); type: cell-based; details: KS cells treated with peptides at 12 ug/mL in DMEM without serum
Method: as §1

mitochondrial membranes = details: at a concentration of 10 μM; cited from earlier work

Substance | reduction in mitochondrial function (Kaposi's sarcoma cells [1]) [%] | mitochondrial function (remaining) in treated KS cell culture (Kaposi's sarcoma cells [1]) | cell death (Kaposi's sarcoma cells [2]) | mitochondrial swelling (mitochondrial membranes)
(CNGRC-GG-d(KLAKLAK)2)2 [HK-1] | 63 | 37% | ~50% | 
CNGRC-GG-d(KLAKLAK)2 | 34 | over 65% | approximately 10% | 
d(KLAKLAK)2 |  |  |  | marked mitochondrial swelling
